Common to all, as to test: microbe, parasite or virus in culture
Holding throughout (details): Mycobacterium tuberculosis, read-out: MIC95 (95% inhibition)

Assay [1] concerns M. tuberculosis isolate VA1345.
In assay [2] the test system is M. tuberculosis isolate UCSD14768J.
Assay [3] relates to M. tuberculosis isolate VA1215.

Results on five compounds are retold here after publication PMC3123436 (Bioorganic & medicinal chemistry, 2011).

In brackets after ≈: the same amount, converted by molar mass.

Regarding `O=C(NCCCN1CCCC1)c1ccc2c(c1)N(Cc1cccc(Cl)c1)C(=O)c1ccccc1[S+]2[O-]` (stereo not shown) [Compound 17], the MIC in assay [1], in assay [2] and in assay [3] was 220 µM (≈ 115 µg/mL) in each case.

Turning to `O=C(NCCN1CCCCCC1)c1ccc2c(c1)N(Cc1cccc(Cl)c1)C(=O)c1ccccc1[S+]2[O-]` (stereo not shown) [Compound 20], the MIC in assay [1], in assay [2] and in assay [3] was 110 µM (≈ 59 µg/mL) in each case.

Regarding `O=C(NCCCN1CCCC1)c1ccc2c(c1)N(Cc1cccc(Cl)c1)C(=O)c1ccccc1S2` [Compound 18], the MIC in assay [1], in assay [2] and in assay [3] was 110 µM (≈ 55.7 µg/mL) throughout.

As for `CN(CCCNC(=O)c1ccc2c(c1)N(Cc1cccc(Cl)c1)C(=O)c1ccccc1[S+]2[O-])C1CCCCC1` (stereo not shown) [Compound 2, N-[3-(cyclohexylmethylamino)propyl]-10-[(3-chlorophenyl)methyl]-10,11-dihydro-11-oxo-dibenzo-[b,f][1,4]-thiazepine-8-carboxamide-5-oxide], the MIC in assay [1], in assay [2] and in assay [3] was 110 µM (≈ 62.1 µg/mL) each time.

For the compound `CCC1CCCCN1CCCNC(=O)c1ccc2c(c1)N(Cc1cccc(Cl)c1)C(=O)c1ccccc1[S+]2[O-]` (stereo not shown) [Compound 12], the MIC in assay [3] came to 110 µM (≈ 62.1 µg/mL).
